In data set [1] the test system is Mysidopsis bahia. In words: Dispersant toxicity testing, 48 hour LC50. Particulars: in vivo. As for the experimental part: Dispersant toxicity testing was performed by Coastal Bioanalysts.
This toxicity data was obtained using the concentrated product.

Data set [2] can be described thus: Surfactant screening test, visual emulsification of Prudhoe Bay Crude in river (sea) water. Conditions: 1st set: pure surfactant, 10 ml added to 100 microliter PBC in 120 ml water; shaken 50 times, stand 10 min. As for the experimental part: 120 ml of the river (sea) water is taken in a 130 ml bottle. Add 100 micro liter(μl) of Prudhoe Bay Crude to the bottle. Add […] of the pure test surfactant. The ratio of the surfactant to oil is 1:10, as per the spec. (the only difference is instead of 100 μl of the 1:10 mixture, the volume added was 110 μl) the mix was shaken vigorously 50 times and allowed to stand 10 min. to evaluate the effectiveness of the system and compare it to COREXIT 9500 at the same ratio.
The first set was with pure surfactants, the 2nd set was with two surfactants combination with 10 μl, in a 1:3 ratio and the 3rd was with a 3 or more surfactants system with 1:3 ratio but 10 μl, 20 μl, or 30 μl addition. The results are tabulated below:
10 μl added unless otherwise stated.
A combination of the above selected surfactants was conceived and formulations with the following variations were evaluated: […]

In the case of `CCCCCCCCCCCCOS(=O)(=O)[O-].[Na+]` [Dss], the “LC50 of the Control Toxicant, M. bahia” value in data set [1] was “The Control Toxicant (Dss): M. bahia 9.82 ppm”.

As to `CCCCCCCC/C=C\CCCCCCCC(=O)OCC(O)CO` (centres unmarked) [GMO, Glyceryl mono oleate], the “APPEARANCE STABILITY OF EMULSION” value in data set [2] is “Not good”.

These data come from patent US20020005386A1, “Water based oil dispersant” (Polychemical Corporation, priority 1999, published 2002).
